In PubChem BioAssay (NCI):
“And” between values parts separate entries of the source, which are not always exact repeats. Equal entries are not always repeated.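 Tested at 5 concentrations; 48 h exposure; 96-well plates; endpoints linearly interpolated, else capped at highest concentration. The concentration for 50% growth inhibition is given as GI50. The concentration for full growth arrest is given as TGI.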

Tests used:
Assay in all cases: NCI tumour cell line growth inhibition, 48 h
SK-MEL-5 melanoma = test system: SK-MEL-5 melanoma
HT29 colon = test system: HT29 colon
MOLT-4 leukemia = test system: MOLT-4 leukemia
SK-MEL-28 melanoma = test system: SK-MEL-28 melanoma
SF-268 CNS = test system: SF-268 CNS
SNB-19 CNS = test system: SNB-19 CNS
SN12C renal = test system: SN12C renal
LOX IMVI melanoma = test system: LOX IMVI melanoma
HOP-62 NSCLC = test system: HOP-62 NSCLC
MALME-3M melanoma = test system: MALME-3M melanoma
NCI-H522 lung = test system: NCI-H522 lung
K-562 leukemia = test system: K-562 leukemia
DU-145 prostate = test system: DU-145 prostate
OVCAR-4 ovarian = test system: OVCAR-4 ovarian
PC-3 prostate = test system: PC-3 prostate
SF-295 CNS = test system: SF-295 CNS
MDA-MB-231 breast = test system: MDA-MB-231 breast
MCF7 breast = test system: MCF7 breast
SNB-75 CNS = test system: SNB-75 CNS
UO-31 renal = test system: UO-31 renal
ACHN renal = test system: ACHN renal
SW-620 colon = test system: SW-620 colon
HCT-116 colon = test system: HCT-116 colon
UACC-257 melanoma = test system: UACC-257 melanoma
COLO 205 colon = test system: COLO 205 colon
OVCAR-5 ovarian = test system: OVCAR-5 ovarian
NCI/ADR-RES ovarian = test system: NCI/ADR-RES ovarian
OVCAR-3 ovarian = test system: OVCAR-3 ovarian
SK-MEL-2 melanoma = test system: SK-MEL-2 melanoma
CCRF-CEM leukemia = test system: CCRF-CEM leukemia
IGROV1 ovarian = test system: IGROV1 ovarian
TK-10 renal = test system: TK-10 renal
M14 melanoma = test system: M14 melanoma
RPMI-8226 leukemia = test system: RPMI-8226 leukemia
786-0 renal = test system: 786-0 renal
T-47D breast = test system: T-47D breast
MDA-MB-435 = test system: MDA-MB-435
KM12 colon = test system: KM12 colon
NCI-H460 lung = test system: NCI-H460 lung
CAKI-1 renal = test system: CAKI-1 renal
NCI-H23 lung = test system: NCI-H23 lung
U251 CNS = test system: U251 CNS
HCT-15 colon = test system: HCT-15 colon
UACC-62 melanoma = test system: UACC-62 melanoma
OVCAR-8 ovarian = test system: OVCAR-8 ovarian
SR leukemia = test system: SR leukemia
HL-60(TB) leukemia = test system: HL-60(TB) leukemia
SK-OV-3 ovarian = test system: SK-OV-3 ovarian
SF-539 CNS = test system: SF-539 CNS
NCI-H226 lung = test system: NCI-H226 lung

`COc1c(OCCCN2CCOCC2)ccc2c3n(c(=NC(=O)c4cnc(N)nc4)nc12)CCN3` was tested, and the GI50 (SK-MEL-5 melanoma) was 228 nM [middle of 4 runs], the TGI (SK-MEL-5 melanoma) was 1.51 µM [middle of 4 runs] and the GI50 (HT29 colon) was 17.7 nM and 24.9 nM and 10.9 nM. The TGI (HT29 colon) was greater than 100000 nM, the GI50 (MOLT-4 leukemia) was 36.3 nM and 40.9 nM and 28.3 nM and the TGI (SK-MEL-28 melanoma) was 7660 nM and 810 nM and 1640 nM. The TGI (SF-268 CNS) was greater than 100000 nM, the GI50 (SNB-19 CNS) was 297 nM [middle of 4 runs] and the TGI (SNB-19 CNS) was greater than 100000 nM. The GI50 (SN12C renal) was 88.5 nM [middle of 4 runs], the TGI (SN12C renal) was greater than 100000 nM and the GI50 (LOX IMVI melanoma) was 64.9 nM [middle of 4 runs]. For the same compound, the GI50 (HOP-62 NSCLC) was 132 nM [middle of 4 runs], the TGI (HOP-62 NSCLC) was greater than 100000 nM and the TGI (MALME-3M melanoma) was 448 nM [middle of 4 runs]. The GI50 (NCI-H522 lung) was 138 nM [middle of 4 runs], the GI50 (K-562 leukemia) was 1.68 µM [middle of 4 runs] and the TGI (K-562 leukemia) was greater than 100000 nM. The TGI (DU-145 prostate) was greater than 100000 nM, the GI50 (OVCAR-4 ovarian) was 469 nM and 391 nM and 438 nM and the TGI (OVCAR-4 ovarian) was > 75000 nM and 10800 nM and 7650 nM. The TGI (PC-3 prostate) was greater than 100000 nM, the GI50 (SF-295 CNS) was 74.8 nM [middle of 4 runs] and the TGI (SF-295 CNS) was 814 nM [middle of 4 runs]. For the same compound, the GI50 (MDA-MB-231 breast) was 339 nM [middle of 4 runs], the TGI (MCF7 breast) was greater than 100000 nM and the GI50 (SNB-75 CNS) was 7.5 nM and < 12.3 nM and < 10 nM. The TGI (SNB-75 CNS) was 50.4 nM and 33 nM, the GI50 (UO-31 renal) was 22.4 nM and 23.8 nM and 24.5 nM and the GI50 (ACHN renal) was 72.3 nM [middle of 4 runs]. For the same compound, the TGI (ACHN renal) was greater than 100000 nM, the GI50 (SW-620 colon) was 216 nM [middle of 4 runs] and the TGI (SW-620 colon) was greater than 100000 nM. The GI50 (HCT-116 colon) was 109 nM [middle of 4 runs], the TGI (HCT-116 colon) was greater than 100000 nM and the GI50 (UACC-257 melanoma) was 77.4 nM [middle of 4 runs]. For the same compound, the GI50 (COLO 205 colon) was 38.1 nM [middle of 4 runs], the GI50 (OVCAR-5 ovarian) was 31.2 nM [middle of 4 runs] and the TGI (OVCAR-5 ovarian) was greater than 100000 nM. For the same compound, the GI50 (NCI/ADR-RES ovarian) was 428 nM [middle of 4 runs], the TGI (NCI/ADR-RES ovarian) was greater than 100000 nM and the GI50 (OVCAR-3 ovarian) was 36.2 nM and 28.3 nM and 126 nM. For the same compound, the TGI (OVCAR-3 ovarian) was 890 nM and 976 nM and 4920 nM, the GI50 (SK-MEL-2 melanoma) was 197 nM [middle of 4 runs] and the GI50 (CCRF-CEM leukemia) was 48.9 nM [middle of 4 runs]. For the same compound, the TGI (CCRF-CEM leukemia) was greater than 100000 nM, the TGI (IGROV1 ovarian) was 40.3 nM [middle of 4 runs] and the TGI (TK-10 renal) was 198 nM and 782 nM. The GI50 (M14 melanoma) was 118 nM [middle of 4 runs], the GI50 (RPMI-8226 leukemia) was 220 nM and 174 nM and 323 nM and the TGI (RPMI-8226 leukemia) was 2050 nM and > 10000 nM. For the same compound, the GI50 (786-0 renal) was 91.3 nM [middle of 4 runs], the GI50 (T-47D breast) was 7.5 nM and 2.58 nM and < 10 nM and the TGI (T-47D breast) was 39.4 nM and 40.8 nM and 30.2 nM. For the same compound, the GI50 (MDA-MB-435) was 142 nM [middle of 4 runs], the GI50 (KM12 colon) was 368 nM [middle of 4 runs] and the GI50 (NCI-H460 lung) was 39.7 nM [middle of 4 runs]. For the same compound, the TGI (NCI-H460 lung) was greater than 100000 nM, the TGI (CAKI-1 renal) was 3380 nM and > 10000 nM and 2400 nM and the GI50 (NCI-H23 lung) was 398 nM [middle of 4 runs]. The TGI (NCI-H23 lung) was greater than 100000 nM, the TGI (U251 CNS) was greater than 100000 nM and the GI50 (HCT-15 colon) was 59.9 nM [middle of 4 runs]. For the same compound, the TGI (HCT-15 colon) was greater than 100000 nM, the GI50 (UACC-62 melanoma) was 48.3 nM [middle of 4 runs] and the TGI (UACC-62 melanoma) was 464 nM [middle of 4 runs]. The GI50 (OVCAR-8 ovarian) was 228 nM [middle of 4 runs], the TGI (OVCAR-8 ovarian) was greater than 100000 nM and the GI50 (SR leukemia) was 315 nM [middle of 4 runs]. The TGI (HL-60(TB) leukemia) was greater than 75000 nM, the TGI (SK-OV-3 ovarian) was 67.3 nM and 446 nM and 74.5 nM and the TGI (SF-539 CNS) was 664 nM [middle of 4 runs]. For the same compound, the GI50 (NCI-H226 lung) was 144 nM [middle of 4 runs] and the TGI (NCI-H226 lung) was greater than 100000 nM.
